Read-outs that look alike come from different tables or passages of the source. Marks after values point to notes of the source that are not given here.
What was measured:
C. elegans = assay: Three day C. elegans well assay; type: in vivo; details: L4 larvae; for EC50 L4 1D: one day of exposure
Experimental: Various compounds were tested for nematicidal activity against C. elegans using contact assays in wells. The assays were performed as described below. The test compounds were solubilized in DMSO at 10 mg/ml to create 100× stock solutions. A dilution series was created by diluting the stock solution with DMSO. For each well assay 4 ul of the appropriate dilution is added to a well of a test plate. A 400 ul aliquot of bacterial stock (in M9 buffer with ampicillin and nystatin) are added to each well of the test plate. Worms are added and the test plate placed on a rotary shaker and held at 20° C. Worms are examined and scored at 4 hrs, 24 hrs, 48 hrs and 72 hours. L1 worms and L4 worms were used in the assay. L1 worms are prepared by plating eggs on a plate without a bacterial feeding layer. The eggs hatch and arrest at the L1 stage. This L1 stage population is then used to create a stock for the experiments. To create an L4 stage stock a small number of worms are taken from an overgrown and starved plate of worms and seeded on a plate with a bacterial feeder layer. A 25 ul aliquot of worms is added to each well in the assay.

Meloidogyne incognita [1] = assay: M. incognita miniaturized greenhouse assay on cucumber seedlings (root galling); type: in vivo; set-up: key to 1 ppm gall ratings / 1 ppm gall rating: mean of 3 gall ratings: 0=0-5%, 1=6-20%, 2=21-50%, 3=51-100% root galled; details: for 8 ppm gall ratings: average of triplicate gall rating, scale 0-3 (% root mass galled)
Experimental: The test compound is dissolved in an acetone solution and added to water. A sprouted cucumber seedling is placed into a vial with dry sand and the water-chemical solution is added immediately. Twenty four hours later Meloidogyne incognita eggs are added to the vials and 10 to 12 days later the roots are evaluated for nematode galling.
Cucumber seeds are sprouted for 3 days in moist paper towels. Acceptable sprouts should be 3 to 4 cm long with several lateral roots just emerging. Stock solutions of chemistry are prepared in a mixture of acetone and Triton X100 (412 mg in 500 mL) to a final concentration of 5 mg/mL. The chemical stock solution is then added to 10 mL deionized water plus 0.015% Triton X100 and mixed thoroughly. This is enough to test each condition in triplicate. Ten mL dry sand is added to each vial. At this time the solubility of the chemistry is visually determined and recorded as either ppt (large precipitates) or cloudy (fine precipitates). Seedlings are planted by tilting the vial and laying the seedling in the correct orientation so that the cotyledons are just above the sand and then tilting back to cover the radicles with sand. 3.3 ml water/chemical mix is added to each vial and the vials placed in racks under fluorescent light banks. The vials are inoculated two days after planting by adding 500 vermiform M. incognita eggs to each vial in 50 uL of deionized or spring water. The vials are then kept under the fluorescent lamps at ambient room temperature and watered as needed with 1 mL deionized water, usually twice during duration of test. Harvest of the cucumber plants is done 10 to 12 days after inoculation by washing sand off the roots. A root gall rating and visual phytotoxicity rating is assigned using the following scales: Gall rating scale (Gall: % root mass galled): 0=0-5%; 1=6-20%; 2=21-50%; and 3=51-100%. The average of the triplicate gall rating is then calculated: green=0.00-0.33 (no galls); yellow=0.67-1.33 (mild galling); orange=1.67-2.33 (moderate galling); red=2.67-3.00 (severe galling). Visual phytotoxicity scale is also assigned (Vis. tox; visual reduction in root mass compared to the control): rs1=mild stunting; rs2=moderate stunting; rs3=severe stunting.

root knot nematode (RKN) = assay: RKN greenhouse soil assay on cucumber plants; type: in vivo, Meloidogyne incognita
Text: Cucumber seeds are planted in a sandy soil mixture in two inch square plastic pots. When the cotyledons are fully opened and just as the first leaf begins to emerge, usually 7 days after planting, chemistry for the 7 day treatment is applied. One week later the chemistry for the 0 day treatment is applied. Separate plants are used for each application. The plants are generally in the 1-2 leaf stage now. At least four hours after the chemistry application the pots are inoculated with root knot nematode (RKN) eggs. Plants are rated for galling 14 days after the egg inoculation.
One milligram of chemistry per four pots is equal to one kilogram per hectare of chemical. A standard test uses four replications. For rates above 2 kg/ha, the desired amount of chemical is weighed into a 30 ml vial (example: 8 kg/ha rate=8 mg chemical in 30 ml vial). The chemical is dissolved in 2 ml of appropriate solvent, generally acetone. For rates below 2 kg/ha, 2 milligrams of chemistry is weighed into the vial and dissolved in 2 ml of the solvent. The appropriate amount of chemical concentrate is then pipetted into a separate 30 ml vial and solvent is added to bring the volume to 2 ml (example 0.5 kg/ha=0.5 ml of concentrate+1.5 ml solvent). Each dissolved concentrate is then brought to a total of 20 milliliters using 0.05% Triton X 100 surfactant solution.
Pots to be treated are moist but not saturated. To each of four pots, five milliliters of the appropriate chemical solution is pipetted to the media surface making sure to avoid contact with the base of the plant. Immediately following chemical application, using a mist nozzle, the pot surface is wetted sufficiently to saturate the pot watering in the chemistry. The chemical application is done in the morning.
Nematode eggs, either SCN or RKN, are added to distilled water to create a concentration of 1000 vermiform eggs […]. At least four hours after chemical treatment the eggs are applied to the treated pots plus non-treated check plants. A small hole about 1 cm deep is punched into the pot surface. One milliliter of the nematode egg slurry is pipetted into the hole. Immediately afterwards the hole is gently covered. Watering of the test plants is then restricted to only water as needed to prevent wilt for a period of 24 hours. After the 24 hour restricted watering, normal sub-irrigation watering is done for the duration of the test.

root knot nematode = assay: Pre-plant incorporated (PPI) greenhouse test of root knot nematode on cucumber plants; type: in vivo, Meloidogyne incognita; details: Meloidogyne incognita, read-out: percent control (galling reduction) relative to the control blank treatment; for pest or weed control at 2000 g/ha: 2 kg/ha rate; for pest or weed control at 4000 g/ha: 4 kg/ha rate; for pest or weed control at 8000 g/ha: 8 ka/ha rate
Text: The PPI test examines the effect of pre-incorporation of compounds in soil and longer aging to simulate in furrow methods of nematicide application in the field. The PPI test exposes compounds to a higher volume of soil and drying which can result in more severe soil binding. Compounds are also aged for longer periods which can lead to more extensive biotic and abiotic degradation further limiting activity.
The chemically treated soil (sandy soil mix) for all treatment days (e.g., 7 days, 14 days, 21 days) treatments is potted into their appropriate pots. On the same day the 7 day treatment pots are seeded. One week later eggs are applied and 14 days after egg application the test is harvested. The 14 day treatments are planted 7 days after the first planting. The 14 day planting and 7 day inoculation happen on the same day. One week later the 14 day treatments are inoculated with eggs. These are harvested 14 days after the inoculation. The 21 day treatments are planted 14 days after the first planting. The 14 day inoculation and 21 day planting are done on the same day. One week later the 21 day plants are inoculated with eggs. The 7 day treatment is harvested the same day as the 21 day inoculation. Fourteen days after inoculation the 21 day plants are harvested.
For each compound a stock is prepared using 4 mg material in 4 ml of acetone. The soil is mixed by placing 80 ml of field soil and 320 ml of sand in a plastic bag and mixing well. The formulation for treatment is done by adding 2.13 ml (8 kg/ha rate), 1.06 ml (4 kg/ha rate) or 0.53 ml (2 kg/ha rate) to a vial and raising it with 10 ml in 0.05%×100. Soil is then treated by adding the entire 10 ml to the 400 ml of mix in the bag. The treated soil is immediately mixed well in the sealed bag to distribute the compound evenly. Approximately 95 ml is used to fill each 2-inch square pot up to the top with some soil compression and flattening. For each compound and for the control treatments 4 pots are filled. All pots are watered until moist but with no run-out through the bottom.
The PPI test simulates 8, 4 and 2 kg/ha rates incorporated 15 cm deep in the field and is equivalent to the 2, 1 and 0.5 kg/ha drench application rates in the standard 2-inch pot cucumber greenhouse assay.

Meloidogyne incognita [2] = assay: Summer field evaluation of pre-plant incorporated compounds on squash; type: in vivo
Experimental: Test plots of 33 cm diameter holes were bored 41 cm deep into clay soil and filled with a mixture of 80% sand and 20% silt loam soil. Technical compound for each treatment was dissolved in 50 ml acetone containing 250 ul of Triton X-100 surfactant. This solution was added to 450 ml water and poured onto 95 liters of sand/soil mixture in a rotating drum mixer. While continuing to rotate the mixing drum 66 grams of chopped, galled, tomato roots was added and thoroughly distributed. The treated soil was sufficient to fill the top 15 cm of each of the 6 replicate plots, thus simulating a PPI treatment. The plots were then watered lightly and a mixture of M. incognita eggs and larvae were injected 5 cm deep at 5 points within the plot (100 k eggs/larvae in 10 ml per plot). Three-week old squash (cv. Liberator III) with 1 fully expanded true leaf was planted 4 days after soil treatment, one per plot.

[3] = Acetone 1 mg/kg, standard 10% acetone in 0.05% Triton X 100 formulation
[4] = Radex 1 mg/kg, emulsifiable concentrate, 6.25% active ingredient by weight
[5] = fourteen day pre-plant incorporated, test a
[6] = 168 h, seven day pre-plant incorporated

Compound | 1 ppm gall ratings (Meloidogyne incognita [1]; Table 1B test a) | 1 ppm gall ratings (Meloidogyne incognita [1]; Table 1B test b) | percent control (galling reduction) relative to the appropriate control blank treatment (root knot nematode (RKN); [3]) [%] | percent control (galling reduction) relative to the appropriate control blank treatment (root knot nematode (RKN); [4]) [%] | pest or weed control at 2000 g/ha (root knot nematode; [5]) [%] | pest or weed control at 4000 g/ha (root knot nematode; [5]) [%] | pest or weed control at 8000 g/ha (root knot nematode; [5]) [%] | 8 ppm gall ratings (Meloidogyne incognita [1]) | further results
Cc1cc(Br)ccc1-c1noc(-c2cccs2)n1 [compound 5824] |  |  |  |  |  |  |  |  | EC50 L4 1D (C. elegans): no; EC50 L4 2D (C. elegans; two days of exposure): no
Clc1cc(-c2noc(-c3cccs3)n2)ccc1Br [compound 5820] |  |  |  |  |  |  |  |  | EC50 L4 1D (C. elegans): no; EC50 L4 2D (F1) (C. elegans; two days of exposure, effects on the second generation larvae (F1)): (25 F1) parts per million
Cc1cc(Br)ccc1-c1noc(-c2ccco2)n1 [compound 5825] | 0 (0=0-5%) | 0.33 | 96 | 96 | 69 | 98 | 96 |  | percent control (galling reduction) relative to the control blank treatment (root knot nematode (RKN); 0 day treatment, 0.05 kg/ha, test a): 53^a percent; percent control (galling reduction) relative to the control blank treatment (root knot nematode (RKN); 0 day treatment, 0.1 kg/ha, test a): 50^a percent; percent control (galling reduction) relative to the control blank treatment (root knot nematode (RKN); 0 day treatment, 0.25 kg/ha, test a): 89%; percent control (galling reduction) relative to the control blank treatment (root knot nematode (RKN); 0 day treatment, 0.25 kg/ha, test b): 84%; percent control (galling reduction) relative to the control blank treatment (root knot nematode (RKN); 0 day treatment, 1 kg/ha, test b): — 94^b percent; percent control (galling reduction) relative to the control blank treatment (root knot nematode (RKN); 7 day treatment, 1 kg/ha, test b): — 97^b percent
Fc1ccc(-c2noc(-c3cccs3)n2)cc1 [compound 5479] | 1 (1=6-20%) | 0.67 | 91 | 96 | 71 | 89 | 100 | 0 (0=0-5%) | 
Clc1ccc(-c2noc(-c3ccco3)n2)cc1 [compound 5523] | 1 (1=6-20%) | 1.33 | 86 | 86 | 59 | 87 | 99 | 0 (0=0-5%) | 0-3 vigor 16 DAP (Meloidogyne incognita [2]; 4 kg (kg/ha) PPI, squash): 3.0; 0-3 vigor 21 DAP (Meloidogyne incognita [2]; 4 kg (kg/ha) PPI, squash): 3.0; feeder root (3 = ave) 31 DAP (Meloidogyne incognita [2]; 4 kg (kg/ha) PPI, squash): 3.0; gall % 31 DAP (Meloidogyne incognita [2]; 4 kg (kg/ha) PPI, squash): 26%; root wgt (g) 31 DAP (Meloidogyne incognita [2]; 4 kg (kg/ha) PPI, squash): 26.3 g; top wgt (lbs) 31 DAP (Meloidogyne incognita [2]; 4 kg (kg/ha) PPI, squash): 1.31 lbs; total fruit (lbs) (Meloidogyne incognita [2]; 4 kg (kg/ha) PPI, squash): 1.24 lbs; control of M. incognita (in words) (Meloidogyne incognita [2]; PPI application at 4 kg/ha): significant control
Brc1ccc(-c2noc(-c3ccco3)n2)cc1 [compound 5467] | 1.67 | 1.33 | 73 | 88 | 71 | 76 | 100 | 0 (0=0-5%) | 
FC(F)(F)c1ccc(-c2noc(-c3cccs3)n2)cc1 [compound 5213] |  |  |  |  |  |  |  | 0.33 | pest or weed control at 4000 g/ha (root knot nematode; [6]): 85%; pest or weed control at 8000 g/ha (root knot nematode; [6]): 98%
Brc1ccc(-c2noc(-c3cccs3)n2)cc1 [compound 1846] | 1.33 | 0.67 | 88 | 86 |  |  |  | 0 (0=0-5%) | 
Clc1ccc(-c2noc(-c3cccs3)n2)cc1 [compound 5527] | 1.67 | 1 (1=6-20%) | 91 | 80 | 57 | 90 | 96 | 0.67 | 

Source: patent US10827753B2, “Compositions and methods for controlling nematodes” (Monsanto Technology LLC, priority 2007, dated 2020)
